# According to publication PMC6150792 (Pain, 2018):
# “And” between values parts separate entries of the source, which are not always exact repeats. Equal values may be shown once. Read-outs that look alike come from different tables or passages of the source. Ends that are not written are not given here.
# Tests used:
# SUMOylation = details: cited from earlier work
# [1] = target: recombinant human CRMP2-His (collapsin response mediator protein 2) (human) (UniProt Q16555); assay: MST
# [2] = target: recombinant human CRMP2-His (collapsin response mediator protein 2) (human) (UniProt Q16555); assay: MST; remark: listed apart in the source
# [3] = target: recombinant human CRMP2-His (collapsin response mediator protein 2) (human) (UniProt Q16555); assay: MST; remark: listed apart in the source
# [4] = target: recombinant human CRMP2-His (collapsin response mediator protein 2) (human) (UniProt Q16555); assay: AlphaScreen or HTRF
# [5] = target: recombinant human CRMP2-His (collapsin response mediator protein 2) (human) (UniProt Q16555); assay: MST; remark: listed apart in the source
# humans = details: current clinically used medication; no reference given; cited from earlier work
# [6] = tested on: cytosolic Na+ in cultured DRG neurons; assay: Sodium fluorescence imaging; assay type: cell-based, rat
# Ubc9 = Ubc9 (Homo sapiens, UniProt P63279); assay: MST, t-CSM binding to NT-647 labeled Ubc9
# SNI rats = details: rat, in vivo
# NaV1.7 = details: CAD cells; ref [20]; [21]; cited from earlier work
# [7] = tested on: presynaptic N-type voltage-gated calcium channels; details: ref [66]; cited from earlier work
# [8] = tested on: model of postoperative, neuropathic, pain, and cephalic pain; details: ref [63], [65]; cited from earlier work
# [9] = tested on: CRMP2 residue S522 phosphorylation by Cdk5; details: ref [66]; cited from earlier work
# CRMP2 = assay: Microscale thermophoresis; design: species or system human; details: read-out: apparent Kd, Ubc9 binding to CRMP2; MST; Ubc9-GST 0.003-100 μM; NT-647 labeled CRMP2; PBS-T (0.05% Tween-20), room temperature, 10 min; no cofactor; mean ± SEM, n=3
# Ubc9-CRMP2 interaction = Ubc9-CRMP2 interaction (Homo sapiens, UniProt P63279); assay: ALPHA assay, Ubc9-GST binding to CRMP2-His and its disruption; details: binding stable over at least this window
compound,measurement,setting,value
C[C@@H]1O[C@@H](O[C@H]2[C@H](O)C[C@H](c3ccc4c(c3O)C(=O)C3=C(C4=O)[C@@]4(O[C@H]5CC[C@H](O)[C@H](C)O5)C(=O)C[C@](C)(O)C[C@@]4(O)C=C3)O[C@@H]2C)CC[C@@H]1O[C@H]1C[C@@H](O)[C@H](O)[C@@H](C)O1 [kerriamycin B],inhibition of SUMOylation,SUMOylation; ref [28],inhibitors of SUMOylation
Ubc9-GST fusion protein (E2 SUMO-conjugating enzyme Ubc9) (from UniProt P63279 1-158),Kd,[1],7.6 µM
same,Kd,[2],26 µM
same,Kd,[3],25.5 µM
same,Kd,[4],0.8 µM
same,Kd,[5],12.2 µM
same,other,[5],80 µM and 137 µM
NCC1(CC(=O)O)CCCCC1 [gabapentin],ability to remain on the rotating rod,"naïve male SD rats; gabapentin, naïve rats, data not shown",decrease in the ability of naïve rats to remain on the rotating rod
same,sedation in humans,humans,severe sedation in humans
"NC1=N[C@H](O)[C@H]2[C@H]3O[C@]4(O)O[C@@H]([C@@H](O)[C@@]2(N1)[C@@H]4O)[C@]3(O)CO [TTX, tetrodotoxin]",ouabain-induced increase in [Na+]c,[6],inhibited
YGRKKRRQRRRGKMDENQ [t-CSM],Kd,Ubc9,0.4 ± 0.1 µM
same,motor impairment or sedation,"naïve male SD rats; rat, in vivo",no motor impairment or sedation
same,time on rotarod,"naïve male SD rats; rat, in vivo",180 ± 0 s
same,motor performance in SNI rats,SNI rats,did not affect motor performance at any time point
Huwentoxin-IV,contribution of NaV1.7 to total sodium currents by isoform-specific blockade,NaV1.7,~ 80%
COC[C@H](NC(C)=O)C(=O)NCc1ccccc1 [(S)-lacosamide],calcium influx,[7],decrease of calcium influx
same,thermal hypersensitivity and mechanical allodynia,[8],mitigation of thermal hypersensitivity and mechanical allodynia
same,CRMP2 phosphorylation by Cdk5,[9],inhibiting phosphorylation by Cdk5
ginkgolic acid,inhibition of SUMOylation,SUMOylation; ref [27],inhibitors of SUMOylation
C[C@@H]1O[C@@H](O[C@H]2C[C@@H](O)[C@]3(CO)[C@H]4[C@H](O)C[C@]5(C)[C@@H](C6=CC(=O)OC6)CC[C@]5(O)[C@@H]4CC[C@]3(O)C2)[C@H](O)[C@H](O)[C@H]1O [Ouabain],effect on [Na+]c of ouabain alone,"[6]; ouabain 1 mM alone, SBFI",increase in [Na^+]c
COC1=C(c2c(OC)cc3cc4c(c(O)c3c2O)C(=O)O[C@H](C)C4)C(=O)c2c(cc3c(c2O)C(=O)O[C@H](C)C3)C1=O [viomellein],inhibition of SUMOylation,SUMOylation; ref [35],inhibitors of SUMOylation
"Ubc9: E2 SUMO-conjugating enzyme, recombinant Ubc9-GST fusion protein",Kd,CRMP2,12.2 ± 2.7 µM
same,stability of Ubc9-CRMP2 binding signal,Ubc9-CRMP2 interaction,≥ 18 h
COC(=CC(=O)O)C1c2cc3ccc(-c4ccc5cc6c(c(O)c5c4O)C(=O)CC(C)(O)C6C(=CC(=O)O)OC)c(O)c3c(O)c2C(=O)CC1(C)O (stereo not shown) [spectomycin B1],inhibition of SUMOylation,SUMOylation; ref [35],inhibitors of SUMOylation
C[C@H]1Oc2cc3c(-c4c(O)cc(O)c5c(O)c6c(cc45)O[C@H](C)[C@@H](C)C6=O)c(O)cc(O)c3c(O)c2C(=O)[C@@H]1C [chaetochromin A],inhibition of SUMOylation,SUMOylation; ref [35],inhibitors of SUMOylation
